Measured values as given in patent US6369047B2, “Androgenic steroid compounds and a method of making and using the same” (Research Triangle Institute, priority 1997, dated 2002).

How the values were obtained:
[1] = tested on: Male Rats; assay: Long Term Androgenic Activity in Male Rats; assay type: in vivo, rat
[2] = molecular target: T1, androgen receptor from rat ventral prostate (Rattus norvegicus, UniProt P15207); assay: Androgen RBA: relative binding to androgen receptor; conditions: Dihydrotestosterone = 100
T1 construct: androgen receptor from rat ventral prostate; from tissue; host or cells: rat ventral prostate
T1 sequence (P15207 1-902): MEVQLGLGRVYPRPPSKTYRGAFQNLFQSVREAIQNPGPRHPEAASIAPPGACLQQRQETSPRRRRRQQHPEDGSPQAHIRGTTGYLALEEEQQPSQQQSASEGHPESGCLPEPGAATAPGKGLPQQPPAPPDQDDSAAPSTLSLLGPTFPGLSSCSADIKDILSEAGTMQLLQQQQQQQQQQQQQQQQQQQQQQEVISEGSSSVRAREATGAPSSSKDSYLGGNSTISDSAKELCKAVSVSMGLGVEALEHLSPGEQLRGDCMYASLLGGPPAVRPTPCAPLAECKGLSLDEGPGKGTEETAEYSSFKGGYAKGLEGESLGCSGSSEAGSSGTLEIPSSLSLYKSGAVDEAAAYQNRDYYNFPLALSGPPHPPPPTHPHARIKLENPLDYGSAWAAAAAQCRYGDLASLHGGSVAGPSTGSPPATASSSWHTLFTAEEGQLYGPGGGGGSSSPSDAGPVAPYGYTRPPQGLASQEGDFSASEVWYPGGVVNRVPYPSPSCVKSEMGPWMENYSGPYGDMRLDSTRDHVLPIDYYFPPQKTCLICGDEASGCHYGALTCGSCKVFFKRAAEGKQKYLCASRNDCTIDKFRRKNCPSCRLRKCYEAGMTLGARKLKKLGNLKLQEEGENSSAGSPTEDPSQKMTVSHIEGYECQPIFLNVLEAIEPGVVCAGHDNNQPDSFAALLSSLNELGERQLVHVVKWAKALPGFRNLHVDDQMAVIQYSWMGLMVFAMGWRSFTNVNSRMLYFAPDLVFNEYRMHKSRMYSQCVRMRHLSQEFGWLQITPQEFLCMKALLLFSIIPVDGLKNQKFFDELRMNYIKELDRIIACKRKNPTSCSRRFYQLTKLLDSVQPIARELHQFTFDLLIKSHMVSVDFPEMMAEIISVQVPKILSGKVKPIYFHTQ

[3] = molecular target: T2, estrogen receptor from immature female rat uterus (Rattus norvegicus, UniProt P06211); assay: Estrogen RBA: relative binding to estrogen receptor; conditions: Estradiol = 100
T2 construct: estrogen receptor from immature female rat uterus; from tissue; host or cells: immature female rat uterus
T2 sequence (P06211 1-600): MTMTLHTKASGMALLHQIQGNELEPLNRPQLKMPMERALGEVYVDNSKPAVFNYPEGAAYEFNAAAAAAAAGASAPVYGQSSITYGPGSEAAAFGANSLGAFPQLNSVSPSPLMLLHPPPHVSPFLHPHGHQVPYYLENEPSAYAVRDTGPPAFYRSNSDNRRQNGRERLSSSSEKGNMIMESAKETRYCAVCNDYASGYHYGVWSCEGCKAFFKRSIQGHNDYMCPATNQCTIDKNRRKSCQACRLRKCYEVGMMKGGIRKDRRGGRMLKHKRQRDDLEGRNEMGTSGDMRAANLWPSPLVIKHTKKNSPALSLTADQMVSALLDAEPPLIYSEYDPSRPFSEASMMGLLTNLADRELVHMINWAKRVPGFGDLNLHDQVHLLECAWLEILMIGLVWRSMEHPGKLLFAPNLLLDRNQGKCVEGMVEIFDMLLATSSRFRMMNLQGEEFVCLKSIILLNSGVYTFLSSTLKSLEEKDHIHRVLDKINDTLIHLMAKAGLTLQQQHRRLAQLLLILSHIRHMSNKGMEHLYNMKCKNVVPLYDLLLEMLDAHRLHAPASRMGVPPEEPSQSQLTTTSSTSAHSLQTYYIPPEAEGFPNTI
Method: (§1) Additionally, Estrogen RBA was determined by relative binding (Estradiol=100) to estrogen receptor from immature female rat uterus, while Estrogenic Activity was determined by subcutaneous administration to immature female rats (Estradiol=100).

[4] = tested on: immature castrated male rats; assay: Androgenic Activity, subcutaneous administration to immature castrated male rats; assay type: in vivo, rat; conditions: for Androgenic Activity, Levator Ani / Androgenic Activity, Seminal Vesicles / Androgenic Activity, Ventral Prostate: subcutaneous, Testosterone = 100
Method: Androgenic Activity was also evaluated using subcutaneous administration to immature castrated male rats (Testosterone=100).

[5] = tested on: immature female rats; assay: Estrogenic Activity, subcutaneous administration to immature female rats; assay type: in vivo, rat; conditions: Estradiol = 100
Method: as §1

SMILES | Final Body Weight (% change from control) ([1]; 0.6 mg, week 1 after dose) | Seminal Vesicle Weight (% change from control) ([1]; 0.6 mg, week 1 after dose) | Ventral Prostate Weight (% change from control) ([1]; 0.6 mg, week 1 after dose) | Final Body Weight (% change from control) ([1]; 0.6 mg, week 2 after dose) | Seminal Vesicle Weight (% change from control) ([1]; 0.6 mg, week 2 after dose) | Ventral Prostate Weight (% change from control) ([1]; 0.6 mg, week 2 after dose) | Final Body Weight (% change from control) ([1]; 0.6 mg, week 4 after dose) | Seminal Vesicle Weight (% change from control) ([1]; 0.6 mg, week 4 after dose) | Ventral Prostate Weight (% change from control) ([1]; 0.6 mg, week 4 after dose) | Final Body Weight (% change from control) ([1]; 0.6 mg, week 6 after dose) | Seminal Vesicle Weight (% change from control) ([1]; 0.6 mg, week 6 after dose) | Ventral Prostate Weight (% change from control) ([1]; 0.6 mg, week 6 after dose) | Final Body Weight (% change from control) ([1]; 0.6 mg, week 8 after dose) | Seminal Vesicle Weight (% change from control) ([1]; 0.6 mg, week 8 after dose) | Ventral Prostate Weight (% change from control) ([1]; 0.6 mg, week 8 after dose) | Final Body Weight (% change from control) ([1]; 0.6 mg, week 10 after dose) | Seminal Vesicle Weight (% change from control) ([1]; 0.6 mg, week 10 after dose) | Ventral Prostate Weight (% change from control) ([1]; 0.6 mg, week 10 after dose) | Androgenic Activity, Seminal Vesicles [4] | Androgenic Activity, Ventral Prostate [4] | also measured
CCCCCCC(=O)O[C@H]1CC[C@H]2[C@H]3[C@H]([C@@H](C)C[C@]12C)[C@H]1CCC(=O)C=C1C[C@H]3C [RTI 147-029, 7α,11β-dimethyl-17β-heptanoyloxyestr-4-en-3-one] | 15% | 968% | 628% | 6% | 1428% | 778% | 1% | 1222% | 1145% | 0% | 1777% | 1810% | −16% | 1044% | 858% | 1% | 924% | 749% | – | – | Final Body Weight (% change from control) ([1]; 0.3 mg, week 1 after dose): 9%; Seminal Vesicle Weight (% change from control) ([1]; 0.3 mg, week 1 after dose): 571%; Ventral Prostate Weight (% change from control) ([1]; 0.3 mg, week 1 after dose): 368%; Final Body Weight (% change from control) ([1]; 0.3 mg, week 2 after dose): 1%; Seminal Vesicle Weight (% change from control) ([1]; 0.3 mg, week 2 after dose): 580%; Ventral Prostate Weight (% change from control) ([1]; 0.3 mg, week 2 after dose): 582%; Final Body Weight (% change from control) ([1]; 0.3 mg, week 4 after dose): 3%; Seminal Vesicle Weight (% change from control) ([1]; 0.3 mg, week 4 after dose): 438%; Ventral Prostate Weight (% change from control) ([1]; 0.3 mg, week 4 after dose): 583%; Final Body Weight (% change from control) ([1]; 0.3 mg, week 6 after dose): −1%; Seminal Vesicle Weight (% change from control) ([1]; 0.3 mg, week 6 after dose): 603%; Ventral Prostate Weight (% change from control) ([1]; 0.3 mg, week 6 after dose): 649%; Final Body Weight (% change from control) ([1]; 0.3 mg, week 8 after dose): −10%; Seminal Vesicle Weight (% change from control) ([1]; 0.3 mg, week 8 after dose): 312%; Ventral Prostate Weight (% change from control) ([1]; 0.3 mg, week 8 after dose): 340%; Final Body Weight (% change from control) ([1]; 0.3 mg, week 10 after dose): −2%; Seminal Vesicle Weight (% change from control) ([1]; 0.3 mg, week 10 after dose): 426%; Ventral Prostate Weight (% change from control) ([1]; 0.3 mg, week 10 after dose): 562%; potency and duration of action as compared with testosterone enanthate ([1]; in words, refers to Table 2): greater potency and longer duration of action
C[C@@H]1CC2=CC(=O)CC[C@@H]2[C@@H]2[C@@H]1[C@@H]1CC[C@H](O)[C@@]1(C)C[C@@H]2C [RTI 1176-012, 7α,11β-dimethyl-17β-hydroxyestr-4-en-3-one] | – | – | – | – | – | – | – | – | – | – | – | – | – | – | – | – | – | – | 1540 | 1480 | Androgen RBA [2]: 194; Estrogen RBA [3]: 0.6; acute androgenic activity as compared with 7α-methyl-19-nortesterone ([4]; in words, refers to Table 1): marked increase in acute androgenic activity; Androgenic Activity, Levator Ani [4]: 3800; melting point: 149 to 151 °C; Estrogenic Activity [5]: 0.8
C[C@@H]1C[C@H]2CC(=O)CC[C@@H]2[C@@H]2[C@@H]1[C@@H]1CC[C@H](O)[C@@]1(C)C[C@@H]2C [RTI 1471-032, 7α,11β-dimethyl-17β-hydroxy-5α-estran-3-one] | – | – | – | – | – | – | – | – | – | – | – | – | – | – | – | – | – | – | 377 | 742 | Estrogenic Activity [5]: 0.7
CCCCCCC(=O)O[C@H]1CC[C@H]2[C@@H]3CCC4=CC(=O)CC[C@]4(C)[C@H]3CC[C@]12C [Testosterone enanthate, reference compound] | 0% | 452% | 409% | 6% | 318% | 339% | −7% | 281% | 291% | 0% | 248% | 405% | 6% | 187% | 150% | 0% | 179% | 130% | – | – | –
C=C1C[C@]2(C)[C@@H](O)CC[C@H]2[C@H]2[C@H]1[C@H]1CCC(=O)C=C1C[C@H]2C [RTI 1471-034, 17β-Hydroxy-7α-methyl-11-methyleneestr-4-en-3-one] | – | – | – | – | – | – | – | – | – | – | – | – | – | – | – | – | – | – | 993 | 1519-2148 | Androgen RBA [2]: 176
C[C@@H]1CC2=CC(=O)CC[C@@H]2[C@H]2CC[C@]3(C)[C@@H](O)CC[C@H]3[C@@H]21 [RTI 1176-024, 7α-methyl-19-nortestosterone] | – | – | – | – | – | – | – | – | – | – | – | – | – | – | – | – | – | – | 790 | 609 | Androgenic Activity, Levator Ani [4]: 2510
